A short description of series [1]: logP by HPLC retention time correlation. Format: physicochemical. As to conditions: standardized reversed phase HPLC system. As for the experimental part:
The logP values were recorded using HPLC analysis. Thus, the retention time of the test compound in a standardized reversed phase HPLC system is correlated with the retention times of compounds with known logP values.
In addition to the logD7.4 values, the logP values of the fluorescent probes were recorded by HPLC, i.e., after calibration of the method, the retention times were correlated with the logP values or the compounds [33]. […] Fluorescein-labeled ligands 21a and 21b are considerably more polar than the corresponding bodipy-labeled senicapoc derivatives.

On the set-up of series [2]: method as in PMID 36315933. As to conditions: previously reported values; cited from earlier work.
In series [3] the target is T1, KCa3.1 channel in A549-3R cells (Homo sapiens, UniProt O15554).
T1 construct: the non-small cell lung cancer cell line A549-3R with a high expression of the KCa3.1 channel was employed; endogenous in cells; host or cells: A549-3R cells
Further details: method as in PMID 36315933. As to conditions: previously reported; cited from earlier work.

The test system of the next series is KCa3.1 channels. As to conditions: read-out: IC50 (KCa3.1 channel); cited from earlier work.

This is an account of results in PMC11859423, “Fluorescent Probes to Image the KCa3.1 Channel in Tumor Cells” (Pharmaceutics, 2025).

In series [1], `CO[B-]1(F)n2c(C)cc(C)c2C(c2ccc(OCCOCCn3cc(COc4ccc(C(C(N)=O)(c5ccccc5)c5ccc(F)cc5)cc4)nn3)cc2)=C2C(C)=CC(C)=[N+]21` (stereo not shown) [10a] came in with a chromatographic logP of 4.4. In addition, the “logD7.4 ± SD (Micro Shake Flask)” value in series [2] was 4.60 ± 0.23. In addition, in series [3], the staining properties result is on record as “promising staining properties”.
With `NC(=O)C(c1ccccc1)(c1ccc(F)cc1)c1ccc(F)cc1` [senicapoc], the IC50 with KCa3.1 channels is 11 nM.

A word on the chromatographic logP: it is lipophilicity estimated from chromatographic retention. A high value points to higher lipophilicity. Usually IC50 stands for the midpoint of a concentration-inhibition curve.
